Target: T1, COX-2 (Homo sapiens, UniProt P35354)
T1 sequence (P35354 18-604): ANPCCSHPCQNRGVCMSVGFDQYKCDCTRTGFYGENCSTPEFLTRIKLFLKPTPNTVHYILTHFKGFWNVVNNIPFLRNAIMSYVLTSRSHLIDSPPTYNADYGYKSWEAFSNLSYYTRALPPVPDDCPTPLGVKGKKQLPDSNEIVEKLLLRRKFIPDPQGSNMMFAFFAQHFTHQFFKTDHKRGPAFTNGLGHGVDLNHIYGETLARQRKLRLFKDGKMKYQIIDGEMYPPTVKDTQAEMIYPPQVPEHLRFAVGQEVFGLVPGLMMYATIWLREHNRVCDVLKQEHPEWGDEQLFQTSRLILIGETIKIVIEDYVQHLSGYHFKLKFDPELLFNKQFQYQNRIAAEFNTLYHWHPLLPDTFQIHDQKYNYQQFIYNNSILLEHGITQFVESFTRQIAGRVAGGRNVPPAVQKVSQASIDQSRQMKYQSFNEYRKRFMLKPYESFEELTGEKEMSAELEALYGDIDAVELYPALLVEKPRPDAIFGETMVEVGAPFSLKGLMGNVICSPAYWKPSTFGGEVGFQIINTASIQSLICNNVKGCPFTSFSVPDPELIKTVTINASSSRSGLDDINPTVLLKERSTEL
Test: PET neuroimaging of rats with localized human COX-2 overexpression (intrastriatal AAV2-GFP-hCOX2)
Assay type: in vivo
Design: FLAG; P2A linker remnant (GFP cassette co-expressed, separated by P2A); host or cells: rat striatal (caudate putamen) neurons transduced in vivo with AAV2, human synapsin promoter
Details: COX-2 overexpression rat model
Experimental: Localized overexpression of human COX-2 was induced in rats with intrastriatal injections of AAV2-GFP-hCOX2 to the right caudate and AAV2-GFP (control virus) to the left caudate (Figure 2A).[53] Animals also received a systemic injection of mannitol to enhance vector spread and transgene expression.[54] To directly compare the kinetic profiles of the three COX-2 tracers, intrasubject imaging was performed in several rats. Each animal was scanned under baseline and competition (+celecoxib) conditions, testing each tracer within each animal (initial data in Figure 2). […] The full experimental design was then replicated (Figure S8 in the Supporting Information). An additional experiment lacking the control virus to the left caudate was performed to facilitate assessment of tracer uptake that could be mediated by the instrastiatal injection through blood brain barrier disruption (Figure S9 in the Supporting Information).
In accordance with Massachusetts General Hospital Institutional Animal Care and Use Committee (IACUC) protocols, Sprague Dawley rats (300-500g, Charles River Laboratories), wildtype mice (Strain […]
Respiratory rates and body temperature were monitored through all imaging and surgical procedures, generally using a respiratory pad and rectal probe. […]
Figure 9). […] Using a sterile ruler coordinates ML 2.5 mm; AP 0.5 mm was measured and marked respective t o bregma. […]

In the case of `[11CH3]S(=O)(=O)c1ccc(-c2cccc(NCc3ccoc3)n2)cc1` [[^11C]BRD1158], the “time of clear separation of right caudate PET signal from controls (left caudate and cerebellum)” value is reported as 10 min.
